Experimental data as given in publication PMC5698469, “Carrageenan catabolism is encoded by a complex regulon in marine heterotrophic bacteria” (Nature Communications, 2017).
Counter-ions that a name gives are not always drawn. Values belong to the compound of their own block, whether it stands above or below them.

Columns and labels:
ZGAL_3146 (CgsB1, S1_7) = target: T1, ZGAL_3146 (CgsB1, S1_7) (Zobellia galactanivorans, UniProt G0L7B4); assay: sulfatase activity on artificial substrate; assay type: biochemical
T1 construct: gene idsA3
T1 sequence (G0L7B4 19-544): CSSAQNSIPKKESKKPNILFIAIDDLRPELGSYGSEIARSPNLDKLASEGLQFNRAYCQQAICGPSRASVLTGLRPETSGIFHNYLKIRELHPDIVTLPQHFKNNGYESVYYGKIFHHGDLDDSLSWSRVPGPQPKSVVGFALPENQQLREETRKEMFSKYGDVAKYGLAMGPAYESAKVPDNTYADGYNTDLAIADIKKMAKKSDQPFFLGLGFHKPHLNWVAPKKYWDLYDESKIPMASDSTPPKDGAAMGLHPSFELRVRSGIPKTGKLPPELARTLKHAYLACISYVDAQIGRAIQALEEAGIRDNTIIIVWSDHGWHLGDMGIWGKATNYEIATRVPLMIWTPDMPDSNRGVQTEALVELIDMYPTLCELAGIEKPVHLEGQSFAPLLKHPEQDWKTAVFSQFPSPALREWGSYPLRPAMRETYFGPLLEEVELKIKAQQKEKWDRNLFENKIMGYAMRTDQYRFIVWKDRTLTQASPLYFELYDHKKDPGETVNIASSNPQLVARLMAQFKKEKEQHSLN

ZGAL_3145 (CgsA, S1_19) = target: T2, ZGAL_3145 (CgsA, S1_19) (Zobellia galactanivorans, UniProt G0L000); assay: sulfatase activity on artificial substrate; assay type: biochemical
T2 construct: gene zobellia_3145
T2 sequence (G0L000 44-511): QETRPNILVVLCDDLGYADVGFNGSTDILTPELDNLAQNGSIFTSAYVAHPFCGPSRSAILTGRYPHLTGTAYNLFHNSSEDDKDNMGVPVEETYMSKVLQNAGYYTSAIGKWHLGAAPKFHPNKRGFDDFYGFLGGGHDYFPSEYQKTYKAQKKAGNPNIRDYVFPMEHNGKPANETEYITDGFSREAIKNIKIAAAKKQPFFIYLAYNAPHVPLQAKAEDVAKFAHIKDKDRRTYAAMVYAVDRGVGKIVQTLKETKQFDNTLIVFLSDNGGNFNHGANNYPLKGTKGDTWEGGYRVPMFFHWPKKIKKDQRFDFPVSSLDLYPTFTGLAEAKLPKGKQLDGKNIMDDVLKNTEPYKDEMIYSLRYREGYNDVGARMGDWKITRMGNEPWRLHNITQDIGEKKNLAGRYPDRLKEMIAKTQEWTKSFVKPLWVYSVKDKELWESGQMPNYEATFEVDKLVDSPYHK

ZGAL_3151 (CgsC, S1_17) = target: T3, ZGAL_3151 (CgsC, S1_17) (Zobellia galactanivorans, UniProt G0L7B6); assay: sulfatase activity on artificial substrate; assay type: biochemical
T3 construct: gene zobellia_3151
T3 sequence (G0L7B6 40-596): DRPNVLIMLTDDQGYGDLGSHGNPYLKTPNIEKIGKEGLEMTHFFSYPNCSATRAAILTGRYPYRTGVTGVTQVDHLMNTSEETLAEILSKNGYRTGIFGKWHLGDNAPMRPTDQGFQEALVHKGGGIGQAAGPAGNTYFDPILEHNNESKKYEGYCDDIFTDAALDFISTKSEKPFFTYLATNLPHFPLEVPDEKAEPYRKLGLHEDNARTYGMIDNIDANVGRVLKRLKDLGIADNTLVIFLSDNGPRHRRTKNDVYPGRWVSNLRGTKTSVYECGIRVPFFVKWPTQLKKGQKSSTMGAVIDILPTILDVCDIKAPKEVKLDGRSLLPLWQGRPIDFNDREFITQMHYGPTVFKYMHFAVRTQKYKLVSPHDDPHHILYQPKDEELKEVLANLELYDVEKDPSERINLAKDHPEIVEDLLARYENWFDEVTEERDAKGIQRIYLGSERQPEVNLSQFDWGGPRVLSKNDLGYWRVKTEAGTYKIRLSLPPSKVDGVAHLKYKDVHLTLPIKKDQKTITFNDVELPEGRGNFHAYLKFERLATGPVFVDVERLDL

[1] = target: α-1,3-(3,6-anhydro)-D-galactosidase DagB (ZGAL_3152, GH129-like) (Zobellia galactanivorans); assay: crystal structure; hanging drop vapor diffusion; 0.14 M Na/K-tartrate, 12% PEG 3350, 9 mg/mL ZGAL_3152; data at 100 K
[2] = target: 3,6-anhydro-D-galactonate cycloisomerase DauB (ZGAL_3156) (Zobellia galactanivorans); assay: SEC; size-exclusion column analysis of ZGAL_3156 in solution (Supplementary Fig. 9)
[3] = target: 3,6-anhydro-D-galactonate cycloisomerase DauB (ZGAL_3156) (Zobellia galactanivorans); assay: crystal structure; hanging drop vapor diffusion; 0.2 M tri potassium citrate, 20% PEG 3350, 25 mg/mL ZGAL_3156; data at 100 K
[4] = target: T4, ZGAL_3152 (DagB, GH129-like) (Zobellia galactanivorans, UniProt G0L004); assay: FACE and MALDI-TOF-MS; assay type: biochemical; settings: 0.5% hexasaccharide fraction, 150 mM NaCl, 3.75 mM CaCl2, 100 mM HEPES pH 7.5, room temperature overnight
T4 construct: gene zobellia_3152; recombinant, E. coli BL21(DE3), pFO4, IMAC purified; homodimer, residues Pro35-Asp693 described in structure

[5] = target: T5, ZGAL_3148 (DagA2, GH127-2) (Zobellia galactanivorans, UniProt G0L7B5); assay: FACE and MALDI MS, E. coli soluble lysate; assay type: biochemical; settings: 0.5% hexasaccharide fraction, 150 mM NaCl, 3.75 mM CaCl2, 100 mM HEPES pH 7.5, room temperature overnight
T5 construct: gene zobellia_3148; recombinant, soluble lysate of E. coli BL21(DE3), pFO4
T5 sequence (G0L7B5 1-656): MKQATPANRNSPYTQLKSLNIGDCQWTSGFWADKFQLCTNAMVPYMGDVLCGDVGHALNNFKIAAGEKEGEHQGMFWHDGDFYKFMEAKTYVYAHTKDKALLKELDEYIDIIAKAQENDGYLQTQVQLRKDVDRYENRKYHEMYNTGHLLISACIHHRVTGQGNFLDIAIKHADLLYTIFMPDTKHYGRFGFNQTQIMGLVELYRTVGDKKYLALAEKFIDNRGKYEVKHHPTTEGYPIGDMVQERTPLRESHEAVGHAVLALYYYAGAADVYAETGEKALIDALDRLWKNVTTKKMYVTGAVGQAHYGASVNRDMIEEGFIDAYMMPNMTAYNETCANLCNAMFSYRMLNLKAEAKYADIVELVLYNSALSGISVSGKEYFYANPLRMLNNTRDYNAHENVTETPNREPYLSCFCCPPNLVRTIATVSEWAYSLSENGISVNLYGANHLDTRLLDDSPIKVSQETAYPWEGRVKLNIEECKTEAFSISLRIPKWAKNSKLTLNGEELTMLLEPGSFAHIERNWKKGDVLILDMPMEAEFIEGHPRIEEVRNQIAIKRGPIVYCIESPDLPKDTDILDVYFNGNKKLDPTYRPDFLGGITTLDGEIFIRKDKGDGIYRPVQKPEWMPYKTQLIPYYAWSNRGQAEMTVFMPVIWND

[6] = target: T6, ZGAL_3147 (DagA1, GH127-1) (Zobellia galactanivorans, UniProt G0L001); assay: FACE and MALDI MS, E. coli soluble lysate; assay type: biochemical; settings: 0.5% hexasaccharide fraction, 150 mM NaCl, 3.75 mM CaCl2, 100 mM HEPES pH 7.5, room temperature overnight; vector-only lysate as control
T6 construct: gene zobellia_3147; recombinant, soluble lysate of E. coli BL21(DE3), pFO4
T6 sequence (G0L001 20-681): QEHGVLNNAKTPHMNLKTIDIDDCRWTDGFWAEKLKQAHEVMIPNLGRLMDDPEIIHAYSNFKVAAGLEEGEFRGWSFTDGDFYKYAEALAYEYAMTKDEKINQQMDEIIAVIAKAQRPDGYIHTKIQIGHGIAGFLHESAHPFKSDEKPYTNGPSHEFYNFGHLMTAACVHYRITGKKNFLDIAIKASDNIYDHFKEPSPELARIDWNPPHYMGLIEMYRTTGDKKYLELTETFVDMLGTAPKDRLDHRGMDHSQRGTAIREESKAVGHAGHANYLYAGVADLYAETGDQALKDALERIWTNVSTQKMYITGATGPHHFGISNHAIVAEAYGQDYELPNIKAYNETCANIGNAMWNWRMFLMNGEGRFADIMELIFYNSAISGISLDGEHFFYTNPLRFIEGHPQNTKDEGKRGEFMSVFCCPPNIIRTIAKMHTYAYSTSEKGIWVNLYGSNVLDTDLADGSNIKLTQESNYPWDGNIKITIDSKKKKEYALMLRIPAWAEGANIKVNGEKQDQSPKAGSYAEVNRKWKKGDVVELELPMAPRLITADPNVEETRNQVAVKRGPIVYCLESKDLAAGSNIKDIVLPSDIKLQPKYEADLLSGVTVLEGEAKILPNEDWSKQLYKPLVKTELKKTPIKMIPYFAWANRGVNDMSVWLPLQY

T4 sequence (G0L004 entry or part of it): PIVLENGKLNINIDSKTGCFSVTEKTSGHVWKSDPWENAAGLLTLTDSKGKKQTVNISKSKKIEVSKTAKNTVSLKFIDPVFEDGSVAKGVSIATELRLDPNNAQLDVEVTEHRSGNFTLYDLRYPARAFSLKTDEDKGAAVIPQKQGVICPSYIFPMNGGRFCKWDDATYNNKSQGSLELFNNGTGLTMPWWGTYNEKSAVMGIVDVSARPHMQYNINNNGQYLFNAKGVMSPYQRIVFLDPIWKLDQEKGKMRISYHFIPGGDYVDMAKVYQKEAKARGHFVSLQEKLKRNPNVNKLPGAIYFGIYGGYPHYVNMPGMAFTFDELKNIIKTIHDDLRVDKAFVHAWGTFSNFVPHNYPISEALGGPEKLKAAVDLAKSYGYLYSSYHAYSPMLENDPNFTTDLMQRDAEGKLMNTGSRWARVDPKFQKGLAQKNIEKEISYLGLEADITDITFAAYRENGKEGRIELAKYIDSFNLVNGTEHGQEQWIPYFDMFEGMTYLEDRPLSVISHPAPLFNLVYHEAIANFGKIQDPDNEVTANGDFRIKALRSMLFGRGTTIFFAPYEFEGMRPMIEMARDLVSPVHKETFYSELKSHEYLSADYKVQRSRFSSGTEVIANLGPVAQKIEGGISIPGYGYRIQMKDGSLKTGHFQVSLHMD

Compound: Cc1cc(=O)oc2cc(OS(=O)(=O)O)ccc12 [4-methylumbelliferyl sulfate]
sulfatase activity on artificial substrate (ZGAL_3146 (CgsB1, S1_7)): shown to be active sulfatases using the artificial substrate 4-methylumbelliferyl sulfate
sulfatase activity on artificial substrate (ZGAL_3145 (CgsA, S1_19)): shown to be active sulfatases using the artificial substrate 4-methylumbelliferyl sulfate
sulfatase activity on artificial substrate (ZGAL_3151 (CgsC, S1_17)): shown to be active sulfatases using the artificial substrate 4-methylumbelliferyl sulfate

stoichiometry N [1]: 2
Compound: α-1,3-(3,6-anhydro)-D-galactosidase DagB (ZGAL_3152, GH129-like) (enzyme)

stoichiometry N [2]: 8
stoichiometry N [3]: 8
Compound: 3,6-anhydro-D-galactonate cycloisomerase DauB (ZGAL_3156) (enzyme)

Compound: O=C[C@H](O)[C@H]1OC[C@@H](O)[C@@H]1O [D-AnG]
FACE and MALDI-TOF-MS [4]: indicated the release of the terminal neutral monosaccharide D-AnG and of a pentasaccharide

Compound: O=S(=O)(O)O[C@@H]1[C@H](O[C@H]2O[C@@H]3CO[C@H]([C@H]2O)[C@H]3O[C@@H]2O[C@H](CO)[C@H](O)[C@H](O[C@H]3O[C@@H]4CO[C@@H]([C@H]4O)[C@H]3O)[C@H]2O)[C@@H](O)[C@H](O[C@@H]2[C@@H]3OC[C@H]2O[C@H](O[C@H]2[C@@H](OS(=O)(=O)O)[C@@H](CO)OC(O)[C@@H]2O)[C@@H]3O)O[C@@H]1CO (stereo partly drawn) [DP6 beta-kappa-kappa oligosaccharide]
FACE and MALDI MS, E. coli soluble lysate [5]: All the GHs showed activity on the furcellaran hexasaccharide, as demonstrated using FACE
FACE and MALDI MS, E. coli soluble lysate [6]: All the GHs showed activity on the furcellaran hexasaccharide, as demonstrated using FACE
